Results: PubChem BioAssay AID2060882 (Molecular Pharmacology Branch, DTP, NCI, 2025)

Tested on: 898857-211-R-J1-PDC complex spheroids, growth % test/control
Assay: Anticancer human tumor 898857-211-R-J1-PDC patient-derived melanoma cell line growth inhibition [RAS]
Conditions: for IC50: curve of first compound; for viability, T/C: stronger effect = lower value
Text: RAS pathway inhibitors in Combinations in Complex Spheroids
A high-throughput screen of multi-cell type tumor spheroids was designed to identify active combinations of RAS pathway inhibitors and targeted small molecules. Complex spheroids include a stromal component modeled by human endothelial cells (HUVEC) and fibroblasts modeled by human mesenchymal stem cells (MSCs). The concentration ranges selected for each drug and investigational agent were based upon clinically achievable concentrations if the clinical Cmax of the agent was known.
Compounds. The drugs and investigational agents: abemaciclib (NSC768073), cobimetinib (NSC768068), divarasib (GDC6063, NSC841802), docetaxel (NSC628503), GDC-1971 (RLY-1971, NSC841576), gemcitabine (NSC613327), inavolisib (NSC800729), ipatasertib (NSC767898), KB-0742 (NSC834161), MRTX-1133 (NSC836407), osimertinib (NSC779217), RMC-4630 (NSC839698), RMC-6236 (NSC851965), RMC-6291 (NSC852671), Ro-3306 (NSC812927), sapanisertib (NSC764658), SN-38 (NSC673596), staurosporine (NSC755774), SY5609 (NSC837396), and tovorafenib (DAY101, NSC766906), were obtained from the National Cancer Institute (NCI) Developmental Therapeutics Program Chemical Repository. The FDA-approved anticancer drug set is available from the NCI Developmental Therapeutics Program. […] The stock solutions were prepared in dimethyl sulfoxide (DMSO, Sigma-Aldrich, St. Louis, MO, cat. D2650) at 800-fold the tested concentration and stored at -70 degrees C prior to their use. All drugs and investigational agents were tested over a range starting from a high concentration at or near the clinical Cmax and decreasing in half-log increments. If the clinical Cmax for an agent had not been determined, the highest concentration tested was 10 microM.
Cell Culture. All cells were maintained in an incubator at 37 degrees C and 5% CO2 with 95% humidity. The PDC lines were cultured according to standard operating procedures established by the NCI PDMR. All PDCs were thawed and cultured in Matrigel-coated flasks prepared with a working solution of 1X Ham's F-12 nutrient mix, without supplementation (Invitrogen, Waltham, MA, cat. 11765054), 100 U/mL penicillin-streptomycin (Invitrogen, cat. 15140122), and 2.5% Matrigel (Corning Inc., Corning, NY, cat. 354248) for the first three passages. The 362531-283-R-J2-PDC and 782815-120-R-J1-PDC lines were cultured in 6C/Colon 1B media, which includes advanced DMEM/F-12 (Thermo Fisher Scientific, cat. 12634028), 10 mM HEPES (Thermo Fisher Scientific, cat. 15630080), 1X GlutaMAX supplement (Thermo Fisher Scientific, cat. 35050061), 0.1 mg/mL primocin (InvivoGen, San Diego, CA, cat. ant-pm-2), 10% defined fetal bovine serum, heat inactivated (HyClone Laboratories Inc., Logan, UT, cat. SH30070.03HI), 50% L-WRN conditioned media (ATCC, cat. CRL-3276), 1.25 mM N-Acetyl-L-cysteine (Sigma-Aldrich, cat. A9165), 10 mM nicotinamide (Sigma-Aldrich, cat. N0636), 1X B-27 supplement (Thermo Fisher Scientific, cat. 17504044), 1X N-2 supplement (Thermo Fisher Scientific, cat. 17502048), 50 ng/mL human EGF (Thermo Fisher Scientific, cat. PHG0311), and 10 microM Y-27632 dihydrochloride (Tocris Bioscience, cat. 1254). The K12877-001-R-J1-PDC line was cultured in 6I media, which includes all 6C/Colon 1B media plus 10 ng/mL human FGF-10 (PeproTech, cat. 100-26), 1 ng/mL human FGF-2 (PeproTech, cat. 100-18B), 1 µM prostaglandin E2 (Tocris Bioscience, cat. 2296), […] hydrocortisone (Sigma-Aldrich, cat. H4001), and […] bovine insulin (Sigma-Aldrich, cat. I6634). The K86415-001-R-J1-PDC line was cultured in 6D media, which includes all 6C/Colon 1B media components minus the L-WRN conditioned media. The 485176-168-R4-J1-PDC was cultured in PANC media, which includes all 6C/Colon 1B media plus 100 ng/mL human FGF-10 (PeproTech, cat. 100-26), 500 nM SB-431542 (Selleckchem, cat. S1067), and 10 nM gastrin (Tocris Bioscience, cat. 3006). […]
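Further: spheroids exposed to compound for seven days before readout.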
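Wherever viability, T/C is given: 100% = DMSO vehicle control wells.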

O=C(c1ccc(F)c(F)c1Nc1ccc(I)cc1F)N1CC(O)([C@@H]2CCCCN2)C1 + C#Cc1c(F)ccc2cc(O)cc(-c3ncc4c(N5CC6CCC(C5)N6)nc(OCC56CCCN5CC(F)C6)nc4c3F)c12
IC50 (second compound 0.0316 µM): 3.56 nM
IC50 (second compound 0.1 µM): < 3.16 nM
IC50 (second compound 0.316 µM): < 3.16 nM
IC50 (second compound 1 µM): 3.69 nM
IC50 (second compound 3.16 µM): 5.18 nM
IC50 (second compound 10 µM): < 3.16 nM
viability, T/C (second compound 0.0316 µM, first compound 0.00316 µM): 52.6%
viability, T/C (second compound 0.0316 µM, first compound 0.01 µM): 35.3%
viability, T/C (second compound 0.0316 µM, first compound 0.0316 µM): 26.1%
viability, T/C (second compound 0.0316 µM, first compound 0.1 µM): 26.5%
viability, T/C (second compound 0.0316 µM, first compound 0.316 µM): 17.6%
viability, T/C (second compound 0.0316 µM, first compound 1 µM): 14.2%
viability, T/C (second compound 0.1 µM, first compound 0.00316 µM): 44%
viability, T/C (second compound 0.1 µM, first compound 0.01 µM): 36.1%
viability, T/C (second compound 0.1 µM, first compound 0.0316 µM): 27.1%
viability, T/C (second compound 0.1 µM, first compound 0.1 µM): 20.7%
viability, T/C (second compound 0.1 µM, first compound 0.316 µM): 18.8%
viability, T/C (second compound 0.1 µM, first compound 1 µM): 15.3%
viability, T/C (second compound 0.316 µM, first compound 0.00316 µM): 50%
viability, T/C (second compound 0.316 µM, first compound 0.01 µM): 37.8%
viability, T/C (second compound 0.316 µM, first compound 0.0316 µM): 29.6%
viability, T/C (second compound 0.316 µM, first compound 0.1 µM): 24.8%
viability, T/C (second compound 0.316 µM, first compound 0.316 µM): 16.7%
viability, T/C (second compound 0.316 µM, first compound 1 µM): 14.5%
viability, T/C (second compound 1 µM, first compound 0.00316 µM): 53.5%
viability, T/C (second compound 1 µM, first compound 0.01 µM): 30%
viability, T/C (second compound 1 µM, first compound 0.0316 µM): 24.5%
viability, T/C (second compound 1 µM, first compound 0.1 µM): 20.6%
viability, T/C (second compound 1 µM, first compound 0.316 µM): 17.6%
viability, T/C (second compound 1 µM, first compound 1 µM): 15.3%
viability, T/C (second compound 3.16 µM, first compound 0.00316 µM): 59.7%
viability, T/C (second compound 3.16 µM, first compound 0.01 µM): 36.2%
viability, T/C (second compound 3.16 µM, first compound 0.0316 µM): 26.7%
viability, T/C (second compound 3.16 µM, first compound 0.1 µM): 21.4%
viability, T/C (second compound 3.16 µM, first compound 0.316 µM): 19.3%
viability, T/C (second compound 3.16 µM, first compound 1 µM): 12.5%
viability, T/C (second compound 10 µM, first compound 0.00316 µM): 17.5%
viability, T/C (second compound 10 µM, first compound 0.01 µM): 14.3%
viability, T/C (second compound 10 µM, first compound 0.0316 µM): 12.5%
viability, T/C (second compound 10 µM, first compound 0.1 µM): 9.58%
viability, T/C (second compound 10 µM, first compound 0.316 µM): 9.91%
viability, T/C (second compound 10 µM, first compound 1 µM): 5.99%
